Reference: ChEMBL document CHEMBL1201862, “PubChem BioAssay data set” (2004)
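Each compound was tested at five concentrations against cells in 96-well plates for 48 hours. GI50 marks 50% less growth.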 The source made the active and inactive calls. Rule as the data show it: active = GI50 up to about 1.1 µM and inactive = higher.

What was measured:
Test in all cases: DTP human tumour cell line panel, 48 h
COLO 205 = system: COLO 205
DU-145 = system: DU-145
EKVX = system: EKVX
HCT-116 = system: HCT-116
HCT-15 = system: HCT-15
HL-60 = system: HL-60
IGROV-1 = system: IGROV-1
MDA-MB-231 = system: MDA-MB-231
MDA-MB-435 = system: MDA-MB-435
Malme-3M = system: Malme-3M
NCI-H226 = system: NCI-H226
NCI-H23 = system: NCI-H23
RXF 393 = system: RXF 393
SF-268 = system: SF-268
SN12C = system: SN12C
SNB-75 = system: SNB-75
SW-620 = system: SW-620
TK-10 = system: TK-10
UACC-257 = system: UACC-257
RPMI-8226 = system: RPMI-8226

Measured: GI50

CC(C)(C)C(=O)Oc1ccc(/C=C/C(=O)c2ccc(OC(=O)C(C)(C)C)cc2)cc1
96.4 µM: HCT-15
inactive: COLO 205 69.7 µM | DU-145 41 µM | EKVX 81.1 µM | HCT-116 23.3 µM | HL-60 47 µM | IGROV-1 > 100 µM | MDA-MB-231 > 100 µM | MDA-MB-435 55.2 µM | Malme-3M > 100 µM | NCI-H226 > 100 µM | NCI-H23 35.7 µM | RXF 393 38.8 µM | SF-268 74 µM | SN12C 42.8 µM | SNB-75 64.9 µM | SW-620 > 100 µM | TK-10 > 100 µM | UACC-257 60.5 µM

O=[N+]([O-])c1ccc(S[C@@H]2[C@H]3c4c(-c5ccccc5)[nH]c(-c5ccccc5)c4[C@@H]2C[C@H]3Cl)cc1
inactive: COLO 205 6.17 µM | DU-145 3.31 µM | HCT-116 1.76 µM | HL-60 3.17 µM | IGROV-1 2.79 µM | MDA-MB-231 4.8 µM | MDA-MB-435 3.58 µM | Malme-3M 10.6 µM | NCI-H226 6.71 µM | NCI-H23 2.38 µM | SF-268 2.68 µM | SN12C 2.94 µM | SNB-75 2.15 µM | SW-620 3.37 µM | TK-10 4.99 µM | UACC-257 14.8 µM
2.39 µM: HCT-15
active: RXF 393 0.938 µM

O=C(c1ccco1)N(C(=S)OC12CC3CC(CC(C3)C1)C2)c1ccccc1
28.2 µM: HCT-15
inactive: COLO 205 16.4 µM | DU-145 52.8 µM | EKVX 18.8 µM | HCT-116 19.9 µM | HL-60 19.3 µM | MDA-MB-231 31.8 µM | MDA-MB-435 28.9 µM | Malme-3M 26.8 µM | NCI-H226 27.2 µM | NCI-H23 27.8 µM | RXF 393 13.7 µM | SF-268 32.9 µM | SN12C 27.9 µM | SNB-75 48.5 µM | SW-620 29 µM | TK-10 42.3 µM | UACC-257 30.9 µM

CC1(C)CC(=O)C(CC2C(=O)c3ccccc3C2=O)C(=O)C1C(=O)C(=O)Nc1cccc2ccc(O)cc12 (configuration not stated)
59.3 µM: HCT-15
inactive: COLO 205 > 100 µM | DU-145 > 100 µM | EKVX 43.9 µM | HCT-116 > 100 µM | HL-60 > 100 µM | IGROV-1 48.9 µM | MDA-MB-231 34 µM | MDA-MB-435 > 100 µM | Malme-3M > 100 µM | NCI-H226 29 µM | NCI-H23 67.1 µM | RPMI-8226 66.5 µM | SF-268 > 100 µM | SN12C > 100 µM | SNB-75 78 µM | SW-620 > 100 µM | TK-10 54 µM | UACC-257 > 100 µM

CCOP(=O)(OCC)C(C)(CC)NC (configuration not stated)
inactive: COLO 205 > 100 µM | DU-145 > 100 µM | EKVX > 100 µM | HCT-116 > 100 µM | HL-60 > 100 µM | IGROV-1 > 100 µM | MDA-MB-231 > 100 µM | MDA-MB-435 > 100 µM | Malme-3M > 100 µM | NCI-H226 > 100 µM | NCI-H23 > 100 µM | RXF 393 > 100 µM | SF-268 > 100 µM | SN12C > 100 µM | SNB-75 > 100 µM | SW-620 > 100 µM | TK-10 > 100 µM | UACC-257 > 100 µM
> 100 µM: HCT-15

Clc1ccc(-c2nnc3sc4nc5ccccc5c-4nn23)c(Cl)c1
inactive: COLO 205 56.4 µM | DU-145 72.1 µM | EKVX 28.8 µM | HCT-116 40.7 µM | HL-60 41.7 µM | MDA-MB-231 99.3 µM | MDA-MB-435 32.6 µM | Malme-3M 49.4 µM | NCI-H226 64.3 µM | NCI-H23 29 µM | RXF 393 78.9 µM | SF-268 33.7 µM | SN12C 50.6 µM | SNB-75 71 µM | SW-620 46 µM | TK-10 55.2 µM | UACC-257 38.5 µM
34.9 µM: HCT-15

CC(=O)O[C@H]1C(=O)[C@@]2(C)[C@H]([C@H](OC(=O)c3ccccc3)[C@]3(O)C[C@H](OC(=O)[C@H](O)[C@@H](NC(=O)c4ccc(N(C)C)cc4)c4ccccc4)C(C)=C1C3(C)C)[C@]1(OC(C)=O)CO[C@@H]1C[C@@H]2O
0.337 µM: HCT-15
active: COLO 205 < 0.005 µM | DU-145 < 0.005 µM | EKVX 0.112 µM | HCT-116 < 0.005 µM | HL-60 < 0.005 µM | IGROV-1 0.00962 µM | MDA-MB-231 0.0543 µM | MDA-MB-435 < 0.005 µM | NCI-H226 0.008 µM | NCI-H23 0.00849 µM | RPMI-8226 < 0.005 µM | RXF 393 0.00887 µM | SN12C < 0.005 µM | SNB-75 < 0.005 µM | SW-620 < 0.005 µM | TK-10 0.0723 µM

O=C(O)c1ccccc1/N=N/c1c(O)c(S(=O)(=O)O)cc2cc(S(=O)(=O)O)ccc12
> 100 µM: HCT-15
inactive: COLO 205 > 100 µM | DU-145 > 100 µM | EKVX > 100 µM | HCT-116 > 100 µM | HL-60 > 100 µM | IGROV-1 > 100 µM | MDA-MB-231 > 100 µM | MDA-MB-435 > 100 µM | Malme-3M > 100 µM | NCI-H226 > 100 µM | NCI-H23 > 100 µM | RXF 393 > 100 µM | SF-268 > 100 µM | SN12C > 100 µM | SNB-75 > 100 µM | SW-620 > 100 µM | TK-10 > 100 µM | UACC-257 > 100 µM
